In US20100317517A1, “HERBICIDE-SAFENER COMBINATION” (BAYER CROPSCIENCE AG, priority 2007, published 2010):
Several values for one entry are separate records, joined by “and”; a condition that tells them apart may be missing. Equal values may be shown once.

How the values were obtained:
Type in all cases: in vivo
Settings in all cases: no safener
Wheat = assay: Compatibility with crop plants, greenhouse, post-emergence, visual scoring
Procedure: (§1) Seeds or rhizome pieces of monocotyledonous and dicotyledonous weeds were placed in sandy loam soil in plastic pots, covered with soil and cultivated in a greenhouse under good growth conditions. Three weeks after sowing, the test plants were treated at the 2- to 4-leaf stage. The compounds according to the invention, formulated as wettable powders or as emulsion concentrates, were sprayed onto the green parts of the plants in various dosages at a water application rate of 100 to 800 I/ha (converted). After the test plants had been left to stand in the greenhouse for 3 to 4 weeks under optimum growth conditions, the effect of the preparations was scored visually in comparison to untreated controls.
(§2) In further greenhouse trials, seeds of a relatively large number of crop plants and weeds were placed into sandy loam soil and covered with soil. Some of the pots were immediately treated as described in section 1, the others were placed in a greenhouse until the plants had developed two to three true leaves and were then sprayed with various dosages of the herbicide/safener combinations according to the invention, as described in section 2. Four to five weeks after the application and standing time in the greenhouse, it was established by visual scoring that the herbicide/safener combinations tested, i.e. of 2-iodo-N-[(4-methoxy-6-methyl-1,3,5-triazin-2-yl)carbamoyl]benzenesulfonamide and the compounds of the formula (I) listed in table A, did, especially with the safeners of the compounds of the formulae S1-1, S1-6, S1-9, S2-1 and S3-1, benoxacor, furilazole, fluxofenim, not cause any damage to crop plants such as cotton, oilseed rape, sugar cane, sugar beet and also Gramineae crops such as barley, wheat, rye, millet, corn or rice when applied by the pre-emergence method or the post-emergence method.
(§3) The results of selected trials with respect to the crop plant compatibility are shown below in an exemplary manner using as an example safeners improving 2-iodo-N-[(4-methoxy-6-methyl-1,3,5-triazin-2-yl)carbamoyl]benzenesulfonamide (A-0) or its Na^+ salt (A-2) in various crop plants, i.e. wheat, barley and corn.

Barley = assay: as above
Procedure: as §1, §2, §3

Corn [1] = assay: as above
Procedure: as §1, §2, §3

Corn [2] = assay: Compatibility with crop plants, greenhouse, pre-emergence, visual scoring
Excerpt: Seeds or rhizome pieces of monocotyledonous and dicotyledonous weed plants were placed in sandy loam soil in cardboard pots and covered with soil. The active compounds (A) and (B), formulated as wettable powders or emulsion concentrates, were then applied to the surface of the covering soil as aqueous suspensions or emulsions in different dosages at a water application rate of 100 to 800 I/ha (converted).
After the treatment, the pots were placed in a greenhouse and kept under good growth conditions for the weeds. Visual scoring of the plant damage or emergence damage was carried out after the test plants had emerged after a test period of 3 to 4 weeks, in comparison to untreated controls. […] The combinations of 2-iodo-N—[(4-methoxy-6-methyl-1,3,5-triazin-2-yl)carbamoyl]benzenesulfonamide and compounds of the formula (I) mentioned in table A especially with the safeners of the compounds of the formulae S1-1, S1-9, S2-1 and S3-1 have very good synergistic herbicidal activity against harmful plants such as Sinapis alba, Chrysanthemum segetum, Avena sativa, Stellaria media, Echinochloa crus-galli, Lolium multiflorum, Setaria viridis, Abutilon theophrasti, Amaranthus retroflexus and Panicum miliaceum when applied by the pre-emergence method at an application rate of 100 g or less of active substance per hectare. […]

[3] = active compound 6.25 g of ai/ha
[4] = active compound 12.5 g of ai/ha

**Q.** With `COc1nc(C)nc(NC(=O)NS(=O)(=O)c2ccccc2I)n1` [Compound A-0, 2-iodo-N-[(4-methoxy-6-methyl-1,3,5-triazin-2-yl)carbamoyl]benzenesulfonamide] as the compound, how does the “Damage to the crop plant in %” value (Wheat; [3]) read?
**A.** 20%

**Q.** And the “Damage to the crop plant in %” value (Wheat; [4])?
**A.** 20%

**Q.** And the “Damage to the crop plant in %” value (Barley; [3])?
**A.** 20% and 10%

**Q.** What about the “Damage to the crop plant in %” value (Barley; [4]) of the same compound?
**A.** 20%

**Q.** And the “Damage to the crop plant in %” value (Corn [1]; [3])?
**A.** 20%

**Q.** What about the “Damage to the crop plant in %” value (Corn [1]; active compound 25 g of ai/ha) of the same compound?
**A.** 50%

**Q.** And the “Damage to the crop plant in %” value (Corn [2]; [4])?
**A.** 65%

**Q.** What about the “Damage to the crop plant in %” value (Corn [2]; active compound 50 g of ai/ha) of the same compound?
**A.** 60%
